Results published in the supplement of paper PMC8612539.

Assays:
Mannheimia haemolytica = experiment: minimum inhibitory concentration (MIC)
Protocol: (§1)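 Broth microdilution MIC (Sensititre BOPO7F bovine plate, CLSI methods) of 19 antimicrobials against field isolates of P. multocida, M. haemolytica, H. somni (deep nasopharyngeal swabs) and E. coli, Enterococcus spp. (rectal swabs) from weaned dairy heifers. Incubation 16-24 h at 35 C. MIC is the lowest concentration preventing visible growth. Values with <= or > lie at the tested range limits. Trimethoprim-sulfamethoxazole is given as the trimethoprim component of a 1:19 mixture.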

Enterococcus spp. = experiment: minimum inhibitory concentration (MIC)
Protocol: as §1

COc1cc(NS(=O)(=O)c2ccc(N)cc2)nc(OC)n1 [sulfadimethoxine]
minimum inhibitory concentration [µg/mL]
Conditions	Enterococcus spp.	Mannheimia haemolytica
isolate (source animal id): 2	> 256	–
isolate (source animal id): 8	–	> 256
isolate (source animal id): 13	–	> 256
isolate (source animal id): 18	–	> 256
isolate (source animal id): 21	–	> 256
isolate (source animal id): 25	–	> 256
isolate (source animal id): 27	–	> 256
isolate (source animal id): 28	–	≤ 256
isolate (source animal id): 30	–	> 256
isolate (source animal id): 31	–	≤ 256
isolate (source animal id): 32	–	> 256
isolate (source animal id): 34	–	> 256
isolate (source animal id): 35	> 256	–
isolate (source animal id): 36	–	> 256
isolate (source animal id): 37	–	> 256
isolate (source animal id): 40	–	> 256
isolate (source animal id): 41	–	> 256
isolate (source animal id): 42	> 256	–
isolate (source animal id): 43	–	> 256
isolate (source animal id): 44	> 256	–
isolate (source animal id): 46	–	> 256
isolate (source animal id): 49	–	> 256
isolate (source animal id): 50	–	> 256
isolate (source animal id): 51	–	> 256
isolate (source animal id): 52	–	> 256
isolate (source animal id): 53	–	> 256
isolate (source animal id): 55	–	> 256
isolate (source animal id): 56	–	> 256
isolate (source animal id): 57	–	> 256
isolate (source animal id): 79	> 256	–
isolate (source animal id): 88	> 256	–
isolate (source animal id): 91	> 256	–
isolate (source animal id): 92	> 256	–
isolate (source animal id): 100	–	> 256
isolate (source animal id): 103	–	> 256
isolate (source animal id): 107	–	> 256
isolate (source animal id): 108	–	> 256
isolate (source animal id): 111	> 256	–
isolate (source animal id): 112	–	> 256
isolate (source animal id): 113	–	> 256
isolate (source animal id): 121	–	> 256
isolate (source animal id): 122	> 256	> 256
isolate (source animal id): 123	> 256	> 256
isolate (source animal id): 126	–	> 256
isolate (source animal id): 133	> 256	> 256
isolate (source animal id): 135	–	> 256
isolate (source animal id): 138	–	> 256
isolate (source animal id): 141	–	> 256
isolate (source animal id): 142	–	> 256
isolate (source animal id): 145	–	> 256
isolate (source animal id): 149	–	≤ 256
isolate (source animal id): 151	–	≤ 256
isolate (source animal id): 152	–	≤ 256
isolate (source animal id): 154	–	≤ 256
isolate (source animal id): 158	> 256	–
isolate (source animal id): 159	–	> 256
isolate (source animal id): 162	–	> 256
isolate (source animal id): 168	> 256	–
isolate (source animal id): 169	> 256	–
isolate (source animal id): 170	–	> 256
isolate (source animal id): 171	> 256	> 256
isolate (source animal id): 172	–	> 256
isolate (source animal id): 173	–	> 256
isolate (source animal id): 175	> 256	–
isolate (source animal id): 177	> 256	–
isolate (source animal id): 179	–	> 256
isolate (source animal id): 180	–	> 256
isolate (source animal id): 181	> 256	–
isolate (source animal id): 182	> 256	–
isolate (source animal id): 183	> 256	> 256
isolate (source animal id): 186	–	> 256
isolate (source animal id): 187	> 256	> 256
isolate (source animal id): 188	–	> 256
isolate (source animal id): 190	> 256	> 256
isolate (source animal id): 191	–	> 256
isolate (source animal id): 192	–	> 256
isolate (source animal id): 194	> 256	–
isolate (source animal id): 195	> 256	–
isolate (source animal id): 197	> 256	–
isolate (source animal id): 201	–	> 256
isolate (source animal id): 202	–	> 256
isolate (source animal id): 209	–	> 256
isolate (source animal id): 211	> 256	≤ 256
isolate (source animal id): 214	> 256	–
isolate (source animal id): 220	–	> 256
isolate (source animal id): 221	–	> 256
isolate (source animal id): 222	> 256	–
isolate (source animal id): 223	> 256	> 256
isolate (source animal id): 228	> 256	–
isolate (source animal id): 230	> 256	–
isolate (source animal id): 233	–	> 256
isolate (source animal id): 235	> 256	–
isolate (source animal id): 236	> 256	–
isolate (source animal id): 237	–	≤ 256
isolate (source animal id): 239	> 256	–
isolate (source animal id): 241	> 256	> 256
isolate (source animal id): 244	> 256	–
isolate (source animal id): 246	> 256	–
isolate (source animal id): 247	> 256	–
isolate (source animal id): 250	> 256	–
isolate (source animal id): 252	> 256	> 256
isolate (source animal id): 253	–	> 256
isolate (source animal id): 259	–	> 256
isolate (source animal id): 260	–	> 256
isolate (source animal id): 262	–	> 256
isolate (source animal id): 268	> 256	–
isolate (source animal id): 282	> 256	> 256
isolate (source animal id): 285	> 256	–
isolate (source animal id): 287	–	> 256
isolate (source animal id): 288	–	> 256
isolate (source animal id): 289	> 256	–
isolate (source animal id): 290	> 256	–
isolate (source animal id): 291	–	≤ 256
isolate (source animal id): 293	–	> 256
isolate (source animal id): 296	> 256	–
isolate (source animal id): 298	> 256	> 256
isolate (source animal id): 299	–	> 256
isolate (source animal id): 300	–	≤ 256
isolate (source animal id): 301	> 256	–
isolate (source animal id): 302	–	> 256
isolate (source animal id): 304	–	> 256
isolate (source animal id): 306	–	> 256
isolate (source animal id): 308	–	≤ 256
isolate (source animal id): 309	–	≤ 256
isolate (source animal id): 310	> 256	–
isolate (source animal id): 313	–	> 256
isolate (source animal id): 318	–	> 256
isolate (source animal id): 320	> 256	≤ 256
isolate (source animal id): 321	–	> 256
isolate (source animal id): 323	–	> 256
isolate (source animal id): 324	–	> 256
isolate (source animal id): 326	–	> 256
isolate (source animal id): 328	–	> 256
isolate (source animal id): 329	–	> 256
isolate (source animal id): 331	> 256	–
isolate (source animal id): 333	> 256	> 256
isolate (source animal id): 335	–	> 256
isolate (source animal id): 338	–	> 256
isolate (source animal id): 341	> 256	–
